Experimental data taken from US9643936B1, “Form of tribenuron-methyl, a process for its preparation and use of the same” (ROTAM AGROCHEM INTERNATIONAL COMPANY LIMITED, priority 2015, dated 2017).

Columns and labels:
Type in all cases: physicochemical
[1] = Viscosity (stated finding, no method given)
[2] = Cleanout test (residual tribenuron-methyl in acetonitrile extract of rinsed bottle); settings: for Cleanout rating, % (concentration of tribenuron-methyl in the acetonitrile solution): lower rating = more effective cleanout
Method: The cleanout test was conducted by dispersing in water a sample to produce a concentration that is normally used when applying the herbicide: 25% tribenuron-methyl. The sample was added to tap water (300 mL) in a 400 mL beaker and magnetically stirred for 2 minutes. The mixture was then stirred for 2 minutes, whereupon the resulting dispersion was dispensed in three 100 mL aliquots to 4-oz (118 mL) polyethylene bottles. The bottles were capped, inverted twice and allowed to stand overnight.
After standing overnight, each individual bottle was inverted twice and the liquid contents were then poured out. Tap water (10 mL) was added and the bottle was inverted until all sediment was re-suspended, whereupon the contents were poured out. Tap water (100 mL) was added and the bottle was inverted twice and then allowed to stand undisturbed for 10 minutes. The bottle was inverted twice more and the contents were poured out. Acetonitrile (10 mL) was added to the bottle to extract any remaining material. The acetonitrile solution was analyzed by reversed-phase liquid chromatography with UV detection. The cleanout rating (the concentration of tribenuron-methyl herbicide in the acetonitrile solution) is reported in % in Table 6 below.

[3] = Determining water solubility (pH 7 buffer, HPLC of supernatant); settings: for Concentration measured by HPLC after treatment, %: pH 7 buffer, 20° C.
Method: A stock pH 7 buffer solution was prepared by adding aqueous sodium hydroxide solution (0.1 M, 145 mL) to aqueous potassium dihydrogen phosphate solution (0.1 M, 250 mL), and then adding sufficient distilled water to adjust the final volume to 500 mL. At least 1 time and up to about 5 times the amount of tribenuron-methyl needed for saturation was added to a mixing vessel containing stock buffer solution at the test temperature (e.g., 20° C.). The mixture was magnetically stirred in the dark while being maintained at the test temperature. Samples were periodically removed for analysis. The samples were centrifuged using a high speed, temperature-controlled centrifuge at the test temperature for about 20 minutes at >12000 G to remove suspended particles. An aliquot of each supernatant was taken for analysis. The concentration of tribenuron-methyl in the supernatant was determined by a high pressure liquid chromatography (HPLC) with a reversed phase chromatography column and UV detection. The method should include development of best-fit calibration curves based on at least three standards using linear regression analysis. Samples were successively withdrawn from the mixing vessel and analyzed until three successive samples show little or no variation in concentration. The test is preferably replicated to ensure accuracy.

[4] = OD formulation, measured vs original concentration 40%
[5] = OD formulation, original concentration 40%
[6] = SG formulation, measured vs original concentration 25%
[7] = SG formulation, original concentration 25%
[8] = WG formulation, measured vs original concentration 25%
[9] = WG formulation, original concentration 25%

Row | SMILES | Viscosity (in words) ([1]; listed as tribenuron-methyl in amorphous state) | Cleanout rating, % (concentration of tribenuron-methyl in the acetonitrile solution) ([2]; OD formulation, prepared in Example 1) | Cleanout rating, % (concentration of tribenuron-methyl in the acetonitrile solution) ([2]; SG formulation, prepared in Example 1) | Cleanout rating, % (concentration of tribenuron-methyl in the acetonitrile solution) ([2]; WG formulation) | Solubility [3, 4] | Concentration measured by HPLC after treatment, % [3, 5] | Solubility [3, 6] | Concentration measured by HPLC after treatment, % [3, 7] | Solubility [3, 8] | Concentration measured by HPLC after treatment, % [3, 9] | Viscosity (in words) ([1]; listed as crystalline modification I of tribenuron-methyl) | Cleanout rating, % (concentration of tribenuron-methyl in the acetonitrile solution) ([2]; OD formulation) | Cleanout rating, % (concentration of tribenuron-methyl in the acetonitrile solution) ([2]; SG formulation) | Cleanout properties (in words) ([2]; compared with known amorphous tribenuron-methyl product) | Solubility (in words) ([3]; compared with amorphous tribenuron-methyl)
1 | COC(=O)c1ccccc1S(=O)(=O)NC(=O)N(C)c1nc(C)nc(OC)n1 [Amorphous tribenuron-methyl (prepared in Example 1)] [methyl 2-[4-methoxy-6-methyl-1,3,5-triazin-2-yl(methyl)carbamoylsulfamoyl]benzoate, reference compound] | highly viscous | 26% | 10% | 13% | 35% | 14% | 60% | 15% | 48% | 12% | – | – | – | – | –
2 | COC(=O)c1ccccc1S(=O)(=O)NC(=O)N(C)c1nc(C)nc(OC)n1 [Tribenuron-methyl, crystalline modification I, 98% (prepared] [methyl 2-[4-methoxy-6-methyl-1,3,5-triazin-2-yl(methyl)carbamoylsulfamoyl]benzoate] | – | – | – | 2% | 88% | 35% | 99.6% | 24.9% | 92% | 23% | significant decrease in its viscosity | 5% | 0.1% | markedly superior cleanout properties | significant increase in its solubility
